This is an account of results in patent publication US5798375A, “Treatment of arteriosclerosis and xanthoma” (Sankyo Company, Limited, priority 1995, dated 1998).

The subject of one assay is Male Fl b hamsters. Briefly: Example 4: regression of preformed atherosclerosis in hamsters (Oil Red O stained area). Format: in vivo. The procedure: Synergism of HMG CoA reductase inhibitors and thiazolidinedione insulin sensitizers was examined by another regression model, i.e. the regression of preformed atherosclerosis in hamsters. Male Fl b hamsters (weight about 130 g,) were given a diet containing 0.05% cholesterol for 13 weeks. They were grouped randomly (2-7 animals per group), and then the test samples were administered for 4 weeks while the hamsters were given a normolipidaemic diet. Pravastatin and fluvastatin were mixed with drinking water at the dose of 3 mg/kg and 1.5 mg/kg, respectively, while troglitazone was mixed with the diet at the dose of 30 mg/kg or 100 mg/kg.
In the case of the combination groups, the dosage was 3 mg/kg+30 mg/kg or 3 mg/kg+100 mg/kg for the pravastatin+troglitazone group, and 1.5 mg/kg+30 mg/kg for the fluvastatin+troglitazone group.
Namely, the aortic arch was stained with ORO to prepare en face specimens. The percentage area which was positive to the ORO stain over the whole area was measured to represent the degree of aortic lesion.

Assay [1] has as its system Male New Zealand white rabbits. Briefly: Example 3: regression of established atherosclerotic lesions in the cholesterol-fed rabbit model. Format: in vivo. The following applies: for Rate of lesion area, against the control group: figure in parentheses; for Rate of lesion area: thoracic aorta, two months, mean ± standard error, control 29 ± 20. The procedure: The rabbits were grouped randomly (3-9 animals per group) and the test samples were administered orally for two months, while they were fed with a normolipidaemic diet. […] The results are shown in terms of the percentage of lesion area in the thoracic aorta.

Turning to `CC(C)n1c(/C=C/C(O)CC(O)CC(=O)O)c(-c2ccc(F)cc2)c2ccccc21` (stereo not shown) [Fluvastatin], the “Stained Area, % of Control” value with Male Fl b hamsters (1.5 mg/kg) amounted to 96%. The “Stained Area ORO” value in the assay with Male Fl b hamsters (aortic arch, 1.5 mg/kg in drinking water, 4 weeks, control 1.82 ± 0.44) is 1.74 ± 0.49%. The “regression of aortic lesions” value in the assay with Male Fl b hamsters (pravastatin 3 mg/kg, fluvastatin 1.5 mg/kg, troglitazone 30 mg/kg alone, combinations) was “no regression of aortic lesions”. The “Rate of lesion area, against the control group” value in assay [1] (0.08 mg/kg (as printed in Table 9)) was 93; in assay [1] (1.5 mg/kg), 134. Moreover, the “Rate of lesion area” value is 27 ± 9% in assay [1] (0.08 mg/kg (as printed in Table 9) oral) and 39 ± 16% in assay [1] (1.5 mg/kg oral).
